{"source": "patent US20240383955A1", "about": "“MODIFIED ANTIMICROBIAL PEPTIDES” (priority 2021, published 2024)", "key": {"[1]": {"system": "P. variotii", "assay": "MIC by CLSI M27/M38 methodology", "type": "cell-based", "settings": "P. variotii isolate MYA-363; Table 8"}, "[2]": {"system": "C. krusei", "assay": "MIC by CLSI M27/M38 methodology", "type": "cell-based", "settings": "C. krusei isolate ATCC 6258; Table 8"}}, "note": "Square brackets hold non-standard residues; d marks the D form. Peptide text beside a SMILES is read from it. Dab = NCC[C@H](N)C(=O)O", "data": [{"molecule": "CC[C@H](C)[C@H](NC(=O)[C@H](CCCNC(=N)N)NC(=O)[C@@H](NC(=O)[C@H](CS)NC(=O)[C@H](Cc1ccccc1)NC(=O)[C@H](CS)NC(=O)[C@H](CCCNC(=N)N)NC(=O)[C@H](CCCNC(=N)N)NC(=O)[C@H](CCCNC(=N)N)NC(=O)[C@H](Cc1ccccc1)NC(=O)CNC(=O)[C@H](CCCNC(=N)N)NC(=O)[C@H](CS)NC(=O)[C@H](CCCNC(=N)N)NC(=O)CNC(=O)CN)[C@@H](C)O)C(=O)N[C@@H](CS)C(N)=O", "note": "[GMA4C_V2A] (H-GGRCRGFRRRCFCTRIC-NH2; N-terminus assumed)", "values": [{"measurement": "MIC, 100%", "setting": "[1]", "value": 8, "unit": "µg/mL"}, {"measurement": "MIC, 100%", "setting": "[2]", "value": 16, "unit": "µg/mL"}]}, {"molecule": "N=C(N)NCCC[C@H](NC(=O)CNC(=O)[C@@H](N)Cc1ccccc1)C(=O)N[C@@H](CS)C(=O)N[C@@H](CCCNC(=N)N)C(=O)NCC(=O)N[C@@H](Cc1ccccc1)C(=O)N[C@@H](CCCNC(=N)N)C(=O)N[C@@H](CCCNC(=N)N)C(=O)N[C@@H](CCCNC(=N)N)C(=O)N[C@@H](CS)C(=O)N[C@@H](Cc1ccccc1)C(=O)N[C@@H](CS)C(=O)N[C@@H](Cc1c[nH]c2ccccc12)C(=O)N[C@@H](CCCNC(=N)N)C(=O)N[C@@H](Cc1c[nH]c2ccccc12)C(=O)N[C@@H](CS)C(N)=O", "note": "[GMA4C_V4A] (H-FGRCRGFRRRCFCWRWC-NH2; N-terminus assumed)", "values": [{"measurement": "MIC, 100%", "setting": "[1]", "value": 8, "unit": "µg/mL"}, {"measurement": "MIC, 100%", "setting": "[2]", "value": 8, "unit": "µg/mL"}]}, {"molecule": "NCC[C@H](NC(=O)CNC(=O)[C@@H](N)Cc1ccccc1)C(=O)N[C@@H](CS)C(=O)N[C@@H](CCN)C(=O)NCC(=O)N[C@@H](Cc1ccccc1)C(=O)N[C@@H](CCN)C(=O)N[C@@H](CCN)C(=O)N[C@@H](CCN)C(=O)N[C@@H](CS)C(=O)N[C@@H](Cc1ccccc1)C(=O)N[C@@H](CS)C(=O)N[C@@H](Cc1c[nH]c2ccccc12)C(=O)N[C@@H](CCN)C(=O)N[C@@H](Cc1c[nH]c2ccccc12)C(=O)N[C@@H](CS)C(N)=O", "note": "[GMA4C_V5A, FG(Dab)C(Dab)GF(Dab)(Dab)(Dab)CFCW(Dab)WC-NH2] (H-FG[Dab]C[Dab]GF[Dab][Dab][Dab]CFCW[Dab]WC-NH2; N-terminus assumed)", "values": [{"measurement": "MIC, 100%", "setting": "[1]", "value": 4, "unit": "µg/mL"}, {"measurement": "MIC, 100%", "setting": "[2]", "value": 8, "unit": "µg/mL"}]}]}
